Tests used:
[1] = tested on: Hepatotoxicity;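 on HepSE Combined Scores: combined hepatic side effect score as listed in the training data of the Drug Induced Liver Injury Prediction System (DILIps)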;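 on HepSE bilirubinemia: bilirubinemia hepatic side effect score drawn from the DILIps training data, a prediction system for drug-induced liver injury; call rule not given here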;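 on HepSE cholecystitis: Cholecystitis-related hepatic side effect score drawn from the DILIps (drug-induced liver injury prediction) training data set; call rule not given here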;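 on HepSE cirrhosis: cirrhosis hepatic side effect score taken from the DILIps (drug-induced liver injury prediction) training set; call rule not given here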; on HepSE hepatic failure: call rule not given here;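 on HepSE jaundice: Jaundice-related hepatic side-effect score drawn from the training data of the DILIps (drug-induced liver injury prediction system); call rule not given here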;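 on HepSE liver function tests abnormal: hepatic side effect score taken from the DILIps (drug-induced liver injury prediction system) training data, here covering abnormal liver function test findings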
[2] = tested on: Hepatotoxicity; remark: listed apart in the source;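 on HepSE bilirubinemia: bilirubinemia hepatic side effect score drawn from the DILIps training data, a prediction system for drug-induced liver injury; call rule not given here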;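 on HepSE cholecystitis: Cholecystitis-related hepatic side effect score drawn from the DILIps (drug-induced liver injury prediction) training data set; call rule not given here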;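 on HepSE cirrhosis: cirrhosis hepatic side effect score taken from the DILIps (drug-induced liver injury prediction) training set; call rule not given here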; on HepSE hepatic failure: call rule not given here;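 on HepSE jaundice: Jaundice-related hepatic side-effect score drawn from the training data of the DILIps (drug-induced liver injury prediction system); call rule not given here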;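 on HepSE liver function tests abnormal: hepatic side effect score taken from the DILIps (drug-induced liver injury prediction system) training data, here covering abnormal liver function test findings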
[3] = tested on: Hepatotoxicity; remark: listed apart in the source;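 on HepSE bilirubinemia: bilirubinemia hepatic side effect score drawn from the DILIps training data, a prediction system for drug-induced liver injury; call rule not given here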;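 on HepSE cholecystitis: Cholecystitis-related hepatic side effect score drawn from the DILIps (drug-induced liver injury prediction) training data set; call rule not given here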;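 on HepSE cirrhosis: cirrhosis hepatic side effect score taken from the DILIps (drug-induced liver injury prediction) training set; call rule not given here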; on HepSE hepatic failure: call rule not given here;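 on HepSE jaundice: Jaundice-related hepatic side-effect score drawn from the training data of the DILIps (drug-induced liver injury prediction system); call rule not given here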;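 on HepSE liver function tests abnormal: hepatic side effect score taken from the DILIps (drug-induced liver injury prediction system) training data, here covering abnormal liver function test findings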
[4] = tested on: Hepatotoxicity; remark: listed apart in the source;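 on HepSE bilirubinemia: bilirubinemia hepatic side effect score drawn from the DILIps training data, a prediction system for drug-induced liver injury; call rule not given here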;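 on HepSE cholecystitis: Cholecystitis-related hepatic side effect score drawn from the DILIps (drug-induced liver injury prediction) training data set; call rule not given here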;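 on HepSE cirrhosis: cirrhosis hepatic side effect score taken from the DILIps (drug-induced liver injury prediction) training set; call rule not given here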; on HepSE hepatic failure: call rule not given here;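 on HepSE jaundice: Jaundice-related hepatic side-effect score drawn from the training data of the DILIps (drug-induced liver injury prediction system); call rule not given here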;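 on HepSE liver function tests abnormal: hepatic side effect score taken from the DILIps (drug-induced liver injury prediction system) training data, here covering abnormal liver function test findings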
[5] = tested on: Hepatotoxicity; remark: listed apart in the source; on HepSE hepatic failure: call rule not given here
[6] = tested on: Hepatotoxicity; remark: listed apart in the source; on HepSE hepatic failure: call rule not given here
[7] = tested on: Hepatotoxicity; remark: listed apart in the source
[8] = tested on: Hepatotoxicity; remark: listed apart in the source
[9] = tested on: Hepatotoxicity; remark: listed apart in the source
[10] = tested on: Hepatotoxicity; remark: listed apart in the source
[11] = tested on: Hepatotoxicity; remark: listed apart in the source
[12] = tested on: Hepatotoxicity; remark: listed apart in the source
[13] = tested on: Hepatotoxicity; remark: listed apart in the source
[14] = tested on: Hepatotoxicity; remark: listed apart in the source

SMILES	HepSE_hepatic failure [1]	HepSE_bilirubinemia [2]	HepSE_jaundice [3]	HepSE_cirrhosis [4]	HepSE_liver function tests abnormal [5]	HepSE_cholecystitis [6]	HepSE_Combined Scores [7]	HepSE_hepatic necrosis [8]	HepSE_liver fatty [9]	HepSE_elevated liver function tests [10]	HepSE_cholelithiasis [11]	HepSE_hepatomegaly [12]	HepSE_liver disease [13]	HepSE_hepatitis [14]	also measured
CO[C@H]1O[C@H](COS(=O)(=O)[O-])[C@@H](O[C@@H]2O[C@@H](C(=O)[O-])[C@@H](O[C@H]3O[C@H](COS(=O)(=O)[O-])[C@@H](O[C@@H]4O[C@H](C(=O)[O-])[C@@H](O[C@H]5O[C@H](COS(=O)(=O)[O-])[C@@H](O)[C@H](O)[C@H]5NS(=O)(=O)[O-])[C@H](O)[C@H]4O)[C@H](OS(=O)(=O)[O-])[C@H]3NS(=O)(=O)[O-])[C@H](O)[C@H]2OS(=O)(=O)[O-])[C@H](O)[C@H]1NS(=O)(=O)[O-].[Na+].[Na+].[Na+].[Na+].[Na+].[Na+].[Na+].[Na+].[Na+].[Na+] [FONDAPARINUX SODIUM]	0	0	0	0	0	0	1	0	0	0	0	0	1	0	
CC(C)CN(C[C@@H](OP(=O)(O)O)[C@H](Cc1ccccc1)NC(=O)O[C@H]1CCOC1)S(=O)(=O)c1ccc(N)cc1 [FOSAMPRENAVIR]	0	0	0	0	0	0	0	0	0	0	0	0	0	0	
O=C(O)P(=O)(O)O [FOSCARNET]	0	0	0	0	0	0	0	0	0	0	0	0	0	0	
C[C@@H]1O[C@@H]1P(=O)(O)O [FOSFOMYCIN]	0	0	1	0	0	0	2	1	0	0	0	0	0	0	
CCC(=O)O[C@@H](O[P@](=O)(CCCCc1ccccc1)CC(=O)N1C[C@H](C2CCCCC2)C[C@H]1C(=O)O)C(C)C [FOSINOPRIL]	1	0	1	0	0	0	4	0	0	0	0	1	0	1	
O=C1NC(c2ccccc2)(c2ccccc2)C(=O)N1COP(=O)(O)O [FOSPHENYTOIN]	0	0	0	0	1	0	1	0	0	0	0	0	0	0	
NC[C@@H]1O[C@H](O[C@H]2[C@@H](O)[C@H](O[C@@H]3[C@@H](O)[C@H](N)C[C@H](N)[C@H]3O[C@H]3O[C@H](CN)[C@@H](O)[C@H](O)[C@H]3N)O[C@@H]2CO)[C@H](N)[C@@H](O)[C@@H]1O [FRAMYCETIN]															HepSE_hepatic failure ([1]; Liver): 0; HepSE_bilirubinemia ([2]; Liver): 0; HepSE_jaundice ([3]; Liver): 0; HepSE_cirrhosis ([4]; Liver): 0; HepSE_liver function tests abnormal ([5]; Liver): 0; HepSE_cholecystitis ([6]; Liver): 0; HepSE_Combined Scores ([7]; Liver): 0; HepSE_hepatic necrosis ([8]; Liver): 0; HepSE_liver fatty ([9]; Liver): 0; HepSE_elevated liver function tests ([10]; Liver): 0; HepSE_cholelithiasis ([11]; Liver): 0; HepSE_hepatomegaly ([12]; Liver): 0; HepSE_liver disease ([13]; Liver): 0; HepSE_hepatitis ([14]; Liver): 0
CN[C@@H]1CCc2[nH]c3ccc(C(N)=O)cc3c2C1 [FROVATRIPTAN]	0	0	0	0	0	0	0	0	0	0	0	0	0	0	
C[C@]12CC[C@@H]3c4ccc(O)cc4C[C@@H](CCCCCCCCC[S+]([O-])CCCC(F)(F)C(F)(F)F)[C@H]3[C@@H]1CC[C@@H]2O (stereo partly drawn) [FULVESTRANT]	0	0	0	0	0	0	0	0	0	0	0	0	0	0	
NCC1(CC(=O)O)CCCCC1 [GABAPENTIN]	1	0	1	0	1	1	8	0	0	1	1	1	0	1	
O=C[C@H](O)[C@@H](O)[C@@H](O)[C@H](O)CO [GALACTOSE]	0	0	0	0	0	0	0	0	0	0	0	0	0	0	
COc1ccc2c3c1O[C@H]1C[C@@H](O)C=C[C@@]31CCN(C)C2 [GALANTAMINE]	0	0	0	0	0	0	1	0	0	0	0	0	0	1	

From ChEMBL document CHEMBL1909294, “Translating clinical findings into knowledge in drug safety evaluation--drug induced liver injury prediction system (DILIps)” (PLoS Comput Biol, 2011)
